This note sets out measurements from US9980943B2, “Methods of treating muscular dystrophy” (BOARD OF REGENTS OF THE NEVADA SYSTEM OF HIGHER EDUCATION, …, priority 2013, dated 2018).

Read-outs that look alike come from different tables or passages of the source.

Experiment [1] relates to α7 integrin (LacZ reporter in α7LacZ+/− myoblasts). The experiment is described as follows: qHTS of the LOPAC library and MLSMR (online screen, α7LacZ+/− myoblasts). The conditions noted are these: for activation at 0.307 µM / activation at 1.53 µM / activation at 7.66 µM / activation at 38.3 µM / Emax / EC50: Mus musculus, Myoblast; for activation at 0.307 µM: read-out: Activity at 0.307 uM [%] **; for activation at 1.53 µM: read-out: Activity at 1.530 uM [%] **; for activation at 7.66 µM: read-out: Activity at 7.660 uM [%] **; for activation at 38.3 µM: read-out: Activity at 38.30uM [%] **; for EC50: read-out: Fit LogAC50 (converted).

In experiment [2] the test system is β-galactosidase in CMV-LacZ C2C12 myotubes. In words: CMV-LacZ secondary screen in C2C12 myotubes (β-Gal stabilizing assay). It is filed as cell-based, mouse. The conditions noted are these: C2C12 CMV-LacZ myotubes, fold relative to DMSO. Put shortly:
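A secondary screen identifies compounds that stabilize β-gal independently of the native promoter, using CMV-LacZ C2C12 cells. Curves span 0.5–40 μM at six levels, in duplicate.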

Experiment [3] has as its system α7 integrin (LacZ reporter in α7βgal+/− myoblasts). The experiment is described as follows: Myoblast α7+/LacZ integrin FDG assay (Burkin assay in myoblasts, 96-well). It counts as cell-based, mouse. The note with it: α7+/LacZ myoblasts, 96-well.
Experiment [4] deals with α7 integrin (LacZ reporter in α7+/LacZ myotubes). The experiment is described as follows: Myotube α7 integrin FDG assay (Burkin assay in myotubes, 96-well). It counts as cell-based, mouse. The conditions noted are these: myotubes.
Where [5] appears, read: 48 h, read-out: Fit Infinite Activity [%].

Regarding `CN(C)S(=O)(=O)c1ccc(C(=O)Nc2nc3ccccc3[nH]2)cc1` [Compound 116], in experiment [1] (48 h), the activation at 0.307 µM was -9.1%, the activation at 1.53 µM was -3.94%, the activation at 7.66 µM stood at 36.7% and the activation at 38.3 µM was 84.9%. Besides, the Emax in experiment [1] (setting [5]) was found to be 94.8%. Besides, the EC50 in experiment [1] was 8.91 µM. Also, in experiment [1] (read-out: Max Response [%]), the Emax is 84.9%.
Consider `CC(C)NC(=O)CN1CCN(C(=O)CCl)CC1` [Compound 62], for which, in experiment [1] (48 h), the activation at 0.307 µM is -21.4%, the activation at 1.53 µM is -18%, the activation at 7.66 µM was found to be 77.9% and the activation at 38.3 µM stood at 155%. Further, in experiment [1] (setting [5]), the Emax is 162%. The EC50 in experiment [1] was 7.08 µM. In addition, the Emax in experiment [1] (read-out: Max Response [%]) is 155%.
Consider `CCCN1C2CCCC1CC(NC(=O)c1cccc([N+](=O)[O-])c1)C2` (stereo not shown) [Compound 164], for which, in experiment [1], the “Curve Description” value is recorded as “Partial”, the Score is recorded as 42 and the EC50 was 10 µM. Also, in experiment [1] (48 h), the activation at 0.307 µM came to 1.16%, the activation at 1.53 µM was 0.0123%, the activation at 7.66 µM was found to be 22% and the activation at 38.3 µM stood at 91.6%. Further, the Emax in experiment [1] (setting [5]) worked out at 91.8%. In addition, the Emax in experiment [1] (read-out: Max Response [%]) was 91.6%.
In the case of `Cc1ccc(NP(=O)(Nc2ccc(C)cc2)Nc2ccc(C)cc2)cc1` [Compound 10], in experiment [1] (48 h), the activation at 0.307 µM was found to be 0%, the activation at 1.53 µM came to 11.4%, the activation at 7.66 µM was found to be 94.1% and the activation at 38.3 µM turned out to be 102%. In experiment [1] (setting [5]), the Emax was 102%. Also, the EC50 in experiment [1] was 3.16 µM.
`O=[N+]([O-])c1ccc(Cl)cc1N/N=C/c1ccncc1` [Compound 112]: in experiment [1] (48 h), the activation at 0.307 µM was found to be 0%, the activation at 1.53 µM was found to be 1.53%, the activation at 7.66 µM was 54% and the activation at 38.3 µM came out at 73.8%. For the same compound, in experiment [1] (setting [5]), the Emax worked out at 74%. The EC50 in experiment [1] was 5.62 µM. The Emax in experiment [1] (read-out: Max Response [%]) came out at 73.8%. For the same compound, in experiment [1] (Table 8 Compound data), the Score came to 43.
Consider `O=C(Nc1cc(Br)ccc1O)C1CC(c2ccccc2Cl)=NO1` (stereo not shown) [Compound 108], for which, in experiment [1] (48 h), the activation at 0.307 µM worked out at 2.03%, the activation at 1.53 µM was determined as 3.14%, the activation at 7.66 µM came out at 15.3% and the activation at 38.3 µM amounted to 141%. In addition, the Emax in experiment [1] (setting [5]) was found to be 142%. The EC50 in experiment [1] was 12.6 µM. Moreover, the Emax in experiment [1] (read-out: Max Response [%]) stood at 141%.
Turning to `NC(=O)c1cccnc1Oc1ccc(Cl)cc1Cl` [Compound 113], in experiment [1] (48 h), the activation at 0.307 µM is -4.94%, the activation at 1.53 µM was -7.73%, the activation at 7.66 µM came out at 23.5% and the activation at 38.3 µM was found to be 105%. The Emax in experiment [1] (setting [5]) stood at 106%. In experiment [1], the EC50 is 10 µM. Moreover, the Emax in experiment [1] (read-out: Max Response [%]) worked out at 105%.
Regarding `Cc1cc(NC(=O)c2ccc(Cl)cc2Cl)no1` [Compound 19], in experiment [1] (48 h), the activation at 0.307 µM was -20.1%, the activation at 1.53 µM turned out to be 15%, the activation at 7.66 µM was determined as 43.9% and the activation at 38.3 µM was 52.1%. Besides, in experiment [1] (setting [5]), the Emax was 52.7%. For the same compound, the EC50 in experiment [1] is 1.41 µM.
As to `COc1cc(CNCc2ccc(C(=O)O)cc2)ccc1OCc1ccc(F)cc1` [Compound 57], in experiment [1] (48 h), the activation at 0.307 µM came out at 1%, the activation at 1.53 µM amounted to 14.6%, the activation at 7.66 µM is 82.2% and the activation at 38.3 µM was determined as 113%. For the same compound, in experiment [1] (setting [5]), the Emax was 115%. Further, in experiment [1], the EC50 is 4.47 µM. Besides, in experiment [1] (read-out: Max Response [%]), the Emax was 113%.
Regarding `CCNC(=O)CSc1nc(-c2ccc(F)cc2)cs1` [Compound 61], in experiment [1] (48 h), the activation at 0.307 µM is -0.123%, the activation at 1.53 µM was 25.8%, the activation at 7.66 µM turned out to be 82.4% and the activation at 38.3 µM is 126%. Also, the Emax in experiment [1] (setting [5]) was 136%. Also, in experiment [1], the EC50 was 5.01 µM. The Emax in experiment [1] (read-out: Max Response [%]) was 126%.
As for `Cc1cc(-c2ccccc2)n2nc(N)nc2n1` [Compound 127], in experiment [1] (48 h), the activation at 0.307 µM is -20%, the activation at 1.53 µM is -16.1%, the activation at 7.66 µM is -2.95% and the activation at 38.3 µM came to 151%. Further, the Emax in experiment [1] (setting [5]) stood at 152%. Further, in experiment [1] (read-out: Max Response [%]), the Emax was determined as 151%.
On to `CC1CCCCC12NC(=O)N(CC(=O)OCc1cccc(F)c1)C2=O` (stereo not shown) [Compound 67], for which, in experiment [1] (48 h), the activation at 0.307 µM turned out to be 6.4%, the activation at 1.53 µM worked out at 14.5%, the activation at 7.66 µM amounted to 69.8% and the activation at 38.3 µM was 142%. Besides, the Emax in experiment [1] (setting [5]) was determined as 162%. In addition, the EC50 in experiment [1] was 10 µM. Also, in experiment [1] (read-out: Max Response [%]), the Emax worked out at 142%.
In the case of `O=Cc1cn(Cc2ccc(F)cc2Cl)c2ccccc12` [Compound 209], in experiment [1] (48 h), the activation at 0.307 µM turned out to be 13%, the activation at 1.53 µM turned out to be 10.6%, the activation at 7.66 µM was 18.6% and the activation at 38.3 µM is 139%. For the same compound, the Emax in experiment [1] (setting [5]) is 142%. Also, the Emax in experiment [1] (read-out: Max Response [%]) turned out to be 139%.
With `CC(C)/N=C(\S)NN=C1CCCCCCCCCCC1` [Compound 36], in experiment [1] (48 h), the activation at 0.307 µM is 7.67%, the activation at 1.53 µM amounted to 25.7%, the activation at 7.66 µM is 65.1% and the activation at 38.3 µM worked out at 78.6%. The Emax in experiment [1] (setting [5]) was 81.2%. In experiment [1], the EC50 is 3.16 µM.
For `CCCN(C(=O)c1ccc(S(=O)(=O)N2CCCC2)cc1)C1CCS(=O)(=O)C1` (stereo not shown) [Compound 89], in experiment [1] (48 h), the activation at 0.307 µM was -9.99%, the activation at 1.53 µM is -0.297%, the activation at 7.66 µM was found to be 45.6% and the activation at 38.3 µM was determined as 74.1%. Besides, in experiment [1] (setting [5]), the Emax is 75.3%. Further, in experiment [1], the EC50 is 5.01 µM. Further, the Emax in experiment [1] (read-out: Max Response [%]) came out at 74.1%.
Take `CC(Oc1ccccc1)C(=O)N1CCN(C(=O)C(C)Oc2ccccc2)CC1` (stereo not shown) [MLS001162337-01]: the “CMV-LACZ in Myotubes, signal relative to DMSO” value in experiment [2] (5 uM) is reported as 0.9904; in experiment [2] (10 uM), 0.9593; in experiment [2] (20 uM), 0.8491; in experiment [2] (40 uM), 1.05. The “Burkin Assay in Myoblasts, value relative to DMSO” value was 1.123 in experiment [3] (0.5 uM); 1.127 in experiment [3] (1 uM); 1.091 in experiment [3] (5 uM); 1.071 in experiment [3] (10 uM); 0.8789 in experiment [3] (20 uM); 0.8149 in experiment [3] (40 uM). For the same compound, the “Burkin Assay in Myotubes (signal relative to DMSO)” value is given as 0.6986 in experiment [4] (0.5 uM); 0.885 in experiment [4] (1 uM); 1.009 in experiment [4] (5 uM); 0.9738 in experiment [4] (10 uM); 1.17 in experiment [4] (20 uM); 1.014 in experiment [4] (40 uM).
With `Cc1ccccc1C(=O)Nc1nnc(SC(C)C)s1` [MLS000683174-01], the “CMV-LACZ in Myotubes, signal relative to DMSO” value is given as 1.156 in experiment [2] (5 uM), 1.0866 in experiment [2] (10 uM), 1.035 in experiment [2] (20 uM) and 1.238 in experiment [2] (40 uM). Moreover, the “Burkin Assay in Myoblasts, value relative to DMSO” value in experiment [3] (0.5 uM) is listed as 1.02; in experiment [3] (1 uM), 0.9176; in experiment [3] (5 uM), 1.02; in experiment [3] (10 uM), 1.014; in experiment [3] (20 uM), 1.028; in experiment [3] (40 uM), 0.8059. Moreover, the “Burkin Assay in Myotubes (signal relative to DMSO)” value in experiment [4] (0.5 uM) was determined as 1.145; in experiment [4] (1 uM) it was 0.9165; in experiment [4] (5 uM), 1.007; in experiment [4] (10 uM) it was 0.8907; in experiment [4] (20 uM) it was 1.081; in experiment [4] (40 uM), 0.9864.
For the compound `CC(NC(=O)c1cn(C)c2ccc(S(=O)(=O)N3CCCC3)cc2c1=O)c1ccccc1` (stereo not shown) [MLS000913052-01], the “CMV-LACZ in Myotubes, signal relative to DMSO” value in experiment [2] (5 uM) came to 1.115; in experiment [2] (10 uM) it was 1.287; in experiment [2] (20 uM), 0.9154; in experiment [2] (40 uM), 0.92. In addition, the “Burkin Assay in Myoblasts, value relative to DMSO” value in experiment [3] (0.5 uM) was 1.116; in experiment [3] (1 uM), 1.038; in experiment [3] (5 uM), 1.076; in experiment [3] (10 uM) it was 1.067; in experiment [3] (20 uM) it was 1.113; in experiment [3] (40 uM), 1.202. Besides, the “Burkin Assay in Myotubes (signal relative to DMSO)” value is 1.073 in experiment [4] (0.5 uM); 0.9014 in experiment [4] (1 uM); 1.055 in experiment [4] (5 uM); 1.013 in experiment [4] (10 uM); 0.9725 in experiment [4] (20 uM); 0.8287 in experiment [4] (40 uM).
